Experiment [1] has as its target T1, human vanin-1 (Homo sapiens (Human), UniProt O95497). Nature of the experiment: Human Vanin-1 Enzyme Assay 2. It is filed as biochemical. The following applies: 1 nM human vanin-1, 10 uM substrate, 45 min. Here is the method: Human Vanin-1 Enzyme Assay 2.
The in vitro assay measures enzymatic cleavage of the fluorescently-labeled vanin substrate, pantetheine 7-amino-4-trifluoromethylcoumarin, by human vanin-1.
The vanin-1 protein was prepared in-house from a construct expressing the extracellular domain of human vanin-1 (GenBank ID NM_004666) preceded N-terminally by the honey bee melittin signal peptide, a GSG linker sequence, a His6X tag and a FLAG tag. The secreted, soluble enzyme was purified from the conditioned medium from a CHO cell line stably expressing the resulting protein. Enzyme purification was performed through sequential Ni NTA and size-exclusion chromatography steps.
On the day of the assay, dose response plates were prepared by diluting the inhibitors in DMSO at compound concentration 100-fold the final in-assay concentration. Concentration series were prepared by serially diluting in DMSO in a half-log series for a total of 11 data points. Intermediate compound plates containing compound in 10% DMSO were then created by diluting the compounds 10-fold in assay buffer consisting of 50 mM Tris-HCl pH=8.0, 50 mM KCl, 0.005% Brij-35 and 1.5 mM cysteamine. To begin the assay 3 μL were transferred from the intermediate compound plate to the assay plate.
A working solution of human vanin-1 was prepared by diluting the enzyme stock to 1.25 nM in assay buffer. Next, 24 μL of the vanin-1 working solution were transferred to the assay plate. The enzyme reaction was then initiated by the addition of 3 μL of 100 μM pantetheine 7-amino-4-trifluoromethylcoumarin prepared in assay buffer. The final concentrations in the assay were 1 nM human vanin-1 and 10 uM substrate. The final concentration of DMSO was 1%. The assay plates were incubated for 45 minutes and before they were read on a Spectramax M5 using a 405 nm excitation wavelength and a 505 nm emission wavelength for detection.

In experiment [2] the target is T1, human vanin-1. Nature of the experiment: Human Vanin-1 Enzyme Assay 1. The class given is biochemical. To be noted: 25 pM human vanin-1, 50 uM pantetheine 7-amino-4-trifluoromethylcoumarin, 30 min preincubation, 60 min. Summed up: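 Purified His6/FLAG-tagged extracellular domain of human vanin-1, secreted from CHO cells, at 25 pM final in 50 mM Tris-HCl pH 8.0, 50 mM KCl, 0.005% Brij-35, 1.6 mM cysteamine, 0.5% DMSO. Inhibitor preincubated 30 min at room temperature; 50 uM pantetheine-AFC substrate, 60 min, fluorescence at 405/510 nm; 11-point four-fold dilution series.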

T1 sequence (O95497 22-491): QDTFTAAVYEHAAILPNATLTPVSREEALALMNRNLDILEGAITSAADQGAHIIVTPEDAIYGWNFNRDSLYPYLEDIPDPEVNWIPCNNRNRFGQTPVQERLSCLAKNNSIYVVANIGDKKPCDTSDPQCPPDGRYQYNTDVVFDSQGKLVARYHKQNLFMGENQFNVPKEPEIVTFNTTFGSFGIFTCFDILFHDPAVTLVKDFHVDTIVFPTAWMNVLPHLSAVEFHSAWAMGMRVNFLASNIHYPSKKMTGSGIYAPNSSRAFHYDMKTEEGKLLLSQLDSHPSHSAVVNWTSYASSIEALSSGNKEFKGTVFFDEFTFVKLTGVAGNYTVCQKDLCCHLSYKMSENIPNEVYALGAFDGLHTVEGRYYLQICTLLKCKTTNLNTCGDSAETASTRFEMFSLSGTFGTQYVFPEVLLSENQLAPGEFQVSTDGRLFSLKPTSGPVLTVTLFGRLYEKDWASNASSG

What is called IC50 is the concentration at which inhibition is half-maximal. In the case of `CC(Nc1ncc(C(=O)c2cccc(C#N)c2)cn1)c1ccc(C(N)=O)cc1` (single isomer, unassigned; (-)) [Example 9, (−)-4-(1-{[5-(3-cyanobenzoyl)pyrimidin-2-yl]amino}ethyl)benzamide], the figures for the IC50 at human vanin-1 [1] and at human vanin-1 [2] were 41.3 nM and 10.3 nM, respectively.

For the compound `Cc1ccc(C(=O)c2cnc(NCc3cncnc3)nc2)cc1C#N` [Example 132, 2-methyl-5-({2-[(pyrimidin-5-ylmethyl)amino]pyrimidin-5-yl}carbonyl) benzonitrile], the values for the IC50 on human vanin-1 [1] and at human vanin-1 [2] were 98.2 nM and 126 nM, respectively. In turn, `CC(Nc1ncc(C(=O)c2cccc(C#N)c2)cn1)c1ccc(C(N)=O)cc1` (stereo not shown) [Example 8, 4-(1-{[5-(3-cyanobenzoyl)pyrimidin-2-yl]amino}ethyl)benzamide] yielded a half-maximal inhibitory concentration (IC50) at human vanin-1 [1] of 91.4 nM. Turning to `N#Cc1cccc(C(=O)c2cnc(NC3(c4cnccn4)CC3)nc2)c1` [Example 5, 3-[(2-{[1-(pyrazin-2-yl)cyclopropyl]amino}pyrimidin-5-yl)carbonyl]benzonitrile], the figures for the IC50 at human vanin-1 [1] and against human vanin-1 [2] were 9.8 nM and 3.4 nM, respectively. Compound `CC(Nc1ncc(C(=O)c2cccc(C#N)c2)cn1)c1cncnc1` (stereo not shown) [Example 133, 3-[(2-{[1-(pyrimidin-5-yl)ethyl]amino}pyrimidin-5-yl)carbonyl] benzonitrile] gave a concentration for half-maximal inhibition (IC50) against human vanin-1 [1] of 15.5 nM. In the case of `CS(=O)(=O)c1cccc(C(=O)c2cnc(NC3(c4cncnc4)CC3)nc2)c1` [Example 17, [3-(methylsulfonyl)phenyl](2-{[1-(pyrimidin-5-yl)cyclopropyl]amino}pyrimidin-5-yl)methanone], the IC50 against human vanin-1 [1] amounted to 1.8 nM; against human vanin-1 [2] it was 0.8 nM. `N#Cc1cccc(C(=O)c2cnc(NCc3cnc(N)nc3)nc2)c1` [Example 4, 3-[(2-{[(2-aminopyrimidin-5-yl)methyl]amino}pyrimidin-5-yl)carbonyl]benzonitrile]: the IC50 on human vanin-1 [1] is 21 nM; against human vanin-1 [2], 22.4 nM. On the same counts, the results for `Cn1ncc2ccc(C(=O)c3cnc(NCc4cncnc4)nc3)cc21` [Example 137, (1-methyl-1H-indazol-6-yl){2-[(pyrimidin-5-ylmethyl)amino]pyrimidin-5-yl}methanone] are 1010 nM and 501 nM. Regarding `N#Cc1cccc(C(=O)c2cnc(NC3(c4ccccc4)CCC3)nc2)c1` [Example 129, 3-({2-[(1-phenylcyclobutyl)amino]pyrimidin-5-yl}carbonyl) benzonitrile], the IC50 was determined as 12.4 nM at human vanin-1 [1] and 9.9 nM at human vanin-1 [2]. Regarding `CS(=O)(=O)c1cccc(C(=O)c2cnc(NCc3cccnn3)nc2)c1` [Example 21, [3-(methylsulfonyl)phenyl]{2-[(pyridazin-3-ylmethyl)amino]pyrimidin-5-yl}methanone], on human vanin-1 [1], inhibition was half-maximal at 63 nM (IC50). On to `O=C(c1cnc(NC2(c3cncnc3)CC2)nc1)c1cccc(C(F)(F)F)c1` [Example 16, (2-{[1-(pyrimidin-5-yl)cyclopropyl]amino}pyrimidin-5-yl)[3-(trifluoromethyl)phenyl]methanone], for which the IC50 at human vanin-1 [1] is 2.6 nM; at human vanin-1 [2] it was 1.7 nM. On the same counts, the results for `N#Cc1cccc(C(=O)c2ccc(NCc3cncnc3)nc2)c1` [Example 140, 3-({6-[(pyrimidin-5-ylmethyl)amino]pyridin-3-yl}carbonyl) benzonitrile] are 64.4 nM and 144 nM. Turning to `COc1ccc(C(=O)c2cnc(NC(C)c3cncnc3)nc2)cc1` (stereo not shown) [Example 138, (4-methoxyphenyl) (2-{[1-(pyrimidin-5-yl)ethyl]amino}pyrimidin-5-yl)methanone], the 50% inhibitory concentration (IC50) on human vanin-1 [1] stood at 437 nM; on human vanin-1 [2] it was 194 nM.

Take `COc1cccc(C(=O)c2cnc(NCc3cncnc3)nc2)c1` [Example 143, (3-methoxyphenyl) {2-[(pyrimidin-5-ylmethyl)amino]pyrimidin-5-yl}methanone]: the IC50 turned out to be 110 nM on human vanin-1 [1] and 81.5 nM against human vanin-1 [2]. The matching figures for `N#Cc1cccc(C(=O)c2cnc(NCC3CCOCC3)nc2)c1` [Example 163, 3-({2-[(tetrahydro-2H-pyran-4-ylmethyl)amino]pyrimidin-5-yl}carbonyl) benzonitrile]: 2230 nM and 2880 nM.

Consider `N#Cc1cc(C(=O)c2cnc(NCc3cncnc3)nc2)ccc1F` [Example 135, 2-fluoro-5-({2-[(pyrimidin-5-ylmethyl)amino]pyrimidin-5-yl}carbonyl) benzonitrile], for which the IC50 against human vanin-1 [1] came out at 68.3 nM; on human vanin-1 [2] it was 48.4 nM.

For the compound `NC(=O)c1cccc(C(=O)c2cnc(NCc3cncnc3)nc2)c1` [Example 136, 3-({2-[(pyrimidin-5-ylmethyl)amino]pyrimidin-5-yl}carbonyl) benzamide], the IC50 worked out at 137 nM on human vanin-1 [1] and 187 nM against human vanin-1 [2]. On the same counts, the results for `N#Cc1ccc(F)c(C(=O)c2cnc(NCc3cncnc3)nc2)c1` [Example 131, 4-fluoro-3-({2-[(pyrimidin-5-ylmethyl)amino]pyrimidin-5-yl}carbonyl) benzonitrile] are 370 nM and 541 nM. For `O=C(c1cnc(NCc2cncnc2)nc1)c1ccc2c(c1)OCCO2` [Example 145, 2,3-dihydro-1,4-benzodioxin-6-yl{2-[(pyrimidin-5-ylmethyl)amino]pyrimidin-5-yl}methanone], the 50% inhibitory concentration (IC50) on human vanin-1 [1] came out at 486 nM; on human vanin-1 [2] it was 329 nM. Turning to `O=C(c1ccc(NCc2cncnc2)nc1)c1cccc(C(F)(F)F)c1` [Example 139, {6-[(pyrimidin-5-ylmethyl)amino]pyridin-3-yl}[3-(trifluoromethyl)phenyl]methanone], half-maximal inhibition at human vanin-1 [1] (IC50) was put at 31.5 nM. `COc1ccc(C(=O)c2cnc(NC(C)c3ccc(C(N)=O)cc3)nc2)cc1` (stereo not shown) [Example 160, 4-(1-{[5-(4-methoxybenzoyl)pyrimidin-2-yl]amino}ethyl) benzamide]: the figures for the IC50 at human vanin-1 [1] and at human vanin-1 [2] were 7150 nM and 3440 nM, respectively.

As to `CS(=O)(=O)c1cccc(C(=O)c2cnc(NCc3cncnc3)nc2)c1` [Example 20, [3-(methylsulfonyl)phenyl]{2-[(pyrimidin-5-ylmethyl)amino]pyrimidin-5-yl}methanone], the IC50 at human vanin-1 [1] turned out to be 17 nM; at human vanin-1 [2] it was 9.4 nM.

As for `N#Cc1cccc(C(=O)c2cnc(NCc3cc[nH]c(=O)c3)nc2)c1` [Example 72, 3-[(2-{[(2-oxo-1,2-dihydropyridin-4-yl)methyl]amino}pyrimidin-5-yl)carbonyl] benzonitrile], the values for the IC50 on human vanin-1 [1] and against human vanin-1 [2] were 86.2 nM and 188 nM, respectively. Regarding `CC(Nc1ccc(C(=O)c2cccc(C#N)c2)cn1)c1cncnc1` (stereo not shown) [Example 144, 3-[(6-{[1-(pyrimidin-5-yl)ethyl]amino}pyridin-3-yl)carbonyl] benzonitrile], the IC50 on human vanin-1 [1] was determined as 19.8 nM; against human vanin-1 [2], 12.5 nM. On to `CC(Nc1ncc(C(=O)c2cccc(C#N)c2)cn1)c1ccc(C(N)=O)cc1` (single isomer, unassigned; (+)) [Example 10, (+)-4-(1-{[5-(3-cyanobenzoyl)pyrimidin-2-yl]amino}ethyl)benzamide], for which the IC50 on human vanin-1 [1] was more than 10000 nM; against human vanin-1 [2] it was more than 20000 nM. The matching figures for `COc1cccc(C(=O)c2cnc(NC3(c4cncnc4)CC3)nc2)c1` [Example 18, (3-methoxyphenyl)(2-{[1-(pyrimidin-5-yl)cyclopropyl]amino}pyrimidin-5-yl)methanone]: 12.3 nM and 26.5 nM. On to `N#Cc1cccc(C(=O)c2cnc(NCc3ccc(N)nc3)nc2)c1` [Example 6, 3-[(2-{[(6-aminopyridin-3-yl)methyl]amino}pyrimidin-5-yl)carbonyl]benzonitrile], for which the values for the IC50 against human vanin-1 [1] and against human vanin-1 [2] were 24.8 nM and 37.3 nM, respectively. On the same counts, the results for `Cn1ncc2cc(C(=O)c3cnc(NCc4cncnc4)nc3)ccc21` [Example 159, (1-methyl-1H-indazol-5-yl){2-[(pyrimidin-5-ylmethyl)amino]pyrimidin-5-yl}methanone] are 3080 nM and 2750 nM. The matching figures for `N#Cc1cc(F)cc(C(=O)c2cnc(NCc3cncnc3)nc2)c1` [Example 130, 3-fluoro-5-({2-[(pyrimidin-5-ylmethyl)amino]pyrimidin-5-yl}carbonyl) benzonitrile]: 289 nM and 482 nM. For `CS(=O)(=O)c1cccc(C(=O)c2ccc(NCc3cncnc3)nc2)c1` [Example 19, [3-(methylsulfonyl)phenyl]{6-[(pyrimidin-5-ylmethyl)amino]pyridin-3-yl}methanone], the results for the IC50 on human vanin-1 [1] and against human vanin-1 [2] were 28.8 nM and 1440 nM, respectively.

With `N#Cc1cc(C(=O)c2cnc(NCc3cncnc3)nc2)ccc1Cl` [Example 134, 2-chloro-5-({2-[(pyrimidin-5-ylmethyl)amino]pyrimidin-5-yl}carbonyl) benzonitrile], the IC50 worked out at 100 nM on human vanin-1 [1] and 259 nM against human vanin-1 [2].

(Values after patent US10308615B2, “Heterocyclic compounds as inhibitors of Vanin-1 enzyme” (Pfizer Inc., priority 2015, dated 2019).)
